Experimental data taken from PubChem BioAssay (NCI).
“And” between values parts separate entries of the source, which are not always exact repeats. Equal entries are not always repeated.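 How tested: cells in 96-well plates exposed to compound for 48 hours at five concentrations. Here, GI50 denotes the concentration required for 50% inhibition of growth. TGI: concentration producing complete growth inhibition.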

How the values were obtained:
Assay in all cases: inhibition of tumour cell growth, NCI panel, 48 h
UO-31 renal = system: UO-31 renal
HCT-116 colon = system: HCT-116 colon
NCI-H522 lung = system: NCI-H522 lung
HOP-62 NSCLC = system: HOP-62 NSCLC
NCI-H23 lung = system: NCI-H23 lung
CAKI-1 renal = system: CAKI-1 renal
A498 renal = system: A498 renal
SK-MEL-5 melanoma = system: SK-MEL-5 melanoma
MCF7 breast = system: MCF7 breast
EKVX NSCLC = system: EKVX NSCLC

Structure (SMILES) | TGI (UO-31 renal) [µM] | TGI (HCT-116 colon) | TGI (NCI-H522 lung) [µM] | TGI (HOP-62 NSCLC) [µM] | TGI (NCI-H23 lung) [µM] | TGI (CAKI-1 renal) | TGI (A498 renal) [µM] | TGI (SK-MEL-5 melanoma) [µM] | GI50 (UO-31 renal) | GI50 (HCT-116 colon) | GI50 (MCF7 breast) | TGI (MCF7 breast) | GI50 (NCI-H522 lung) [µM] | GI50 (HOP-62 NSCLC) [µM] | GI50 (NCI-H23 lung) [µM] | GI50 (A498 renal) [µM] | GI50 (EKVX NSCLC) [µM] | TGI (EKVX NSCLC) [µM] | GI50 (SK-MEL-5 melanoma) [µM] | GI50 (CAKI-1 renal)
CCc1cccc(C)c1NC(=O)CCc1nnc2s/c(=C\c3cccc4ccccc34)c(=O)n12 | > 100 | > 100 µM | > 100 | > 100 | > 100 | > 100 µM | > 100 | > 100 |  |  |  |  |  |  |  |  |  |  |  | 
CCN1CCN(c2cc(C)nc(N(CCCNc3ccnc4cc(Cl)ccc34)Cc3ccc4c(c3)OCO4)n2)CC1 | 3.08 | 13.6 µM | 4.76 | 31.6 | > 100 |  | 20.8 | 3.13 | 1.51 µM | 2.45 µM | 2.88 µM | 21.5 µM | 2.03 | 2.73 | 7.4 | 3.66 | 4.56 | > 100 | 1.7 | 
CCc1cccc(C)c1N1C(=O)C(=O)C(c2nc3ccccc3o2)C(=O)C1=O | > 100 | > 100 µM | > 100 | > 100 | > 100 | > 100 µM | > 100 | > 100 |  |  |  |  |  |  |  |  |  | > 100 |  | 
O=C(O)c1cc(=O)c2c([nH]c3ccccc32)s1 | > 100 |  | > 100 | > 100 | > 100 | > 100 µM |  | > 100 |  |  |  |  |  |  |  |  |  | > 100 |  | 
C[Si](C)(c1ccc(C(=O)O)cc1)c1ccc(C(=O)O)cc1 |  | > 100 µM | > 100 | > 100 | > 100 | > 100 µM | > 100 | > 100 |  |  |  | > 100 µM |  |  |  |  |  | > 100 |  | 
Cc1cc(Nc2nc(C(=O)Nc3ccccc3)nc3ccccc23)n[nH]1 | > 25 | > 25 µM | > 25 | > 25 |  | > 25 µM | > 25 | > 25 | 1.3 µM | 4.7 µM | 13 µM | > 25 µM | 6.37 | 14.2 |  | 1.05 |  |  | 22.5 | 1.87 µM
COC(=O)C1=C(CS(=O)c2ccc([N+](=O)[O-])cc2[N+](=O)[O-])C2C=CC1C2 (centres undefined) | 45.9 | 45.1 µM | 27.3 | > 100 | 98.9 | 39.6 µM | > 100 | > 100 |  |  |  |  |  |  |  |  |  | > 100 |  | 
Cc1c(C(=O)/C=C/C=C/c2ccccc2)[n+](=O)c2ccccc2n1[O-] | > 100 |  | 32 | 54.5 | 51.4 | > 100 µM | > 100 | 44.4 |  |  |  |  |  |  |  |  |  | > 100 |  | 
Cl/C(N=Nc1ccccc1)=N/Nc1ccccc1 |  | > 100 µM | > 100 | > 100 | > 100 | > 100 µM | > 100 |  |  |  |  |  |  |  |  |  |  | > 100 |  | 
O=c1nc(-c2ccccc2)cc(CC(O)c2ccc(Cl)c(Cl)c2)[nH]1 (centres undefined) | 99.3 | > 100 µM | 90.8 | > 100 | > 100 | > 100 µM | 77.2 | > 100 |  |  |  |  |  |  |  |  |  | > 100 |  | 
CCOC(=O)CN(Cn1cncn1)Cn1cncn1 | > 100 | > 100 µM |  | > 100 |  | > 100 µM |  | 53.7 |  |  |  |  |  |  |  |  |  | > 100 |  | 
C[Si](C)(C)C(CCCCSc1ccccc1)(Sc1ccccc1)Sc1ccccc1 | > 100 | > 100 µM |  |  | > 100 | > 100 µM | > 100 | > 100 |  |  |  |  |  |  |  |  |  | > 100 |  | 
CCC(C)Oc1nc2c(c(=O)n(C)c(=O)n2C)n1C (centres undefined) | > 100 | > 100 µM |  | > 100 | > 100 | > 100 µM |  | > 100 | > 100 µM | > 100 µM | > 100 µM | > 100 µM |  | > 100 | > 100 |  | > 100 | > 100 | > 100 | > 100 µM
CCc1ccccc1NC(=O)/C=C/c1ccccc1 |  | > 100 µM | > 100 | > 100 | > 100 | > 100 µM | > 100 | > 100 |  |  |  | > 100 µM |  |  |  |  |  | > 100 |  | 
COC(=O)C1C(=O)CC2CCCCC21 (centres undefined) | > 100 | > 100 µM | > 100 | > 100 |  | > 100 µM | > 100 | > 100 |  |  |  |  |  |  |  |  |  |  |  | 
CCn1c(-c2cc3c([nH]c4ccccc43)c(-c3cccc(O)c3)n2)n[nH]c1=S | 11.8 | 15 µM | 7.07 | 16 | 13.2 |  | 4.38 | 3.06 | 2.24 µM | 3.88 µM | 2.79 µM | 14 µM | 2.02 | 4.71 | 3.11 | 0.327 | 3.45 | 14.5 | 1.45 | 
COC(=O)C12CC(NC(=O)c3csc([C@@H](C[C@H](C(C)C)N(C)C(=O)[C@@H](NC(=O)[C@H]4CCCCN4C)C4CC4)OC(C)=O)n3)(C1)C2 | > 16.7 | > 16.7 µM | 3.15 | > 16.7 | > 16.7 |  | > 4.46 | 0.449 | 0.614 µM | 0.0228 µM | 0.00813 µM | > 16.7 µM | 0.00375 | 0.0347 | 0.0885 | 0.0833 | 0.0696 | > 16.7 | 0.023 | 
Cc1nc2ccc(Br)cc2c(=O)n1-c1ccc(NC2OCC(O)C(O)C2O)cc1 (centres undefined) | > 100 | 53.7 µM and > 100 µM |  | > 100 |  | 44.1 µM and > 100 µM | > 100 | > 100 | 35.8 µM and > 100 µM | 17.7 µM and 79.2 µM | 20.8 µM and > 100 µM | 51.9 µM and > 100 µM |  |  |  |  |  | > 100 |  | 20.3 µM and > 100 µM
O=C1OC(c2ccccc2)=N/C1=C\c1ccc(Oc2ccc(Cl)c(Cl)c2)cc1 | 78.8 | > 100 µM | > 100 | > 100 | > 100 |  | > 100 | 81.6 |  |  |  |  |  |  |  |  |  | > 100 |  | 
COc1ccc(-c2cc(C(=O)Nc3cc(C(F)(F)F)cc(C(F)(F)F)c3)c3ccccc3n2)cc1 | > 100 | 18.6 µM |  | 30.3 | 19.2 | 25.5 µM | 40 | 34.6 |  |  |  |  |  |  |  |  |  | 27.4 |  | 
